Laboratory results published in publication PMC3472974, “The Bite of the Honeybee: 2-Heptanone Secreted from Honeybee Mandibles during a Bite Acts as a Local Anaesthetic in Insects and Mammals” (PLoS ONE, 2012).
pIC50: −log10 of the molar value. Like-named read-outs stand apart in the source and are kept apart here.

How the values were obtained:
[1] = tested on: honeybees; set-up: method as in earlier work; conditions: cited from earlier work
[2] = tested on: wax moth larvae (WML); test: GC-MS quantification of 2-H in wax moth larvae bitten by honeybees; format: in vivo, Galleria mellonella; conditions: extracted after full recovery, n = 10
Text: We measured the 2-H content of the following types of samples: a) isolated honeybee mandibular glands (n = 30); b) wax moth larvae (WML; body weight of around 0.01 g) that had been bitten by honeybees (n = 30) –2-H extracted immediately after paralysis; c) WML that had been bitten by honeybees (n = 10) –2-H extracted after full recovery; d) non-bitten WML (controls, n = 10).
To optimize the detection of 2-H, all samples were 1) treated with liquid nitrogen in order to stop any enzymatic process and ensure complete lyses of cell walls and then 2) extracted with ethanol. The extracts were centrifuged, filtered, and stored at −20°C until analysis.
Chromatographic analyses were carried out on a Hewlett Packard 6890 gas chromatographic model hyphenated to a Hewlett Packard 5973 mass selective detector using electron impact (70 eV) as the ionization source, further equipped with an Agilent 6890 autosampler. An HP 5MS (30 m×0.25 mm; film thickness 0.25 µm) column was used for the separations. Helium was used as the carrier gas (flow 0.8 ml/min). […] Thus, under the above chromatographic conditions, the Rt of 2-H was 8.47 min and the ions monitored at EI (70eV, full scan) were m/z 43, 58, 71, 85, 99 and 114. Quantification, however, was performed at Selected Ion Monitoring (SIM) mode and the ions were monitored at m/z 58 and 71. […]

[3] = tested on: wax moth larvae (WML); test: Locomotory pattern of tethered wax moth larvae after injection; format: in vivo, Galleria mellonella; conditions: 2.5 µL injected (8.15 mg per 1 g body weight), larger WML body weight 0.25 g
Text: To monitor the constant locomotory pattern of WML, the probe of a force-displacement transducer (FT-03C, Grass Instrument Company, USA), attached to a micromanipulator, was hooked onto the tail of the WML, while the head was carefully pinned to a wax substrate, [14]. The electrical signal generated by the rhythmic force produced during locomotion was amplified and fed to a computer through a data acquisition card interface (Keithley KPCI 3102, Keithley Instruments, Cleveland, OH, USA). Software designed using the facilities of Labview (Labview 5.1, National Instruments USA) permitted analysis of the recorded data.

[4] = no reference given; cited from earlier work
[5] = target: T1, hNav1.2 channels (Homo sapiens, UniProt Q99250); test: Patch-clamp (PatchXpress 7000A) on transfected CHO cells, hNav1.2; format: cell-based; conditions: for pIC50: CHO cells, n = 6, mean ± SEM, 2-H exposure limited to 3 min; for times less active than lidocaine: hNav1.2
T1 construct: expressed in transfected cells; host or cells: CHO-K1 (ATCC CCL-61)
T1 sequence (Q99250 whole entry): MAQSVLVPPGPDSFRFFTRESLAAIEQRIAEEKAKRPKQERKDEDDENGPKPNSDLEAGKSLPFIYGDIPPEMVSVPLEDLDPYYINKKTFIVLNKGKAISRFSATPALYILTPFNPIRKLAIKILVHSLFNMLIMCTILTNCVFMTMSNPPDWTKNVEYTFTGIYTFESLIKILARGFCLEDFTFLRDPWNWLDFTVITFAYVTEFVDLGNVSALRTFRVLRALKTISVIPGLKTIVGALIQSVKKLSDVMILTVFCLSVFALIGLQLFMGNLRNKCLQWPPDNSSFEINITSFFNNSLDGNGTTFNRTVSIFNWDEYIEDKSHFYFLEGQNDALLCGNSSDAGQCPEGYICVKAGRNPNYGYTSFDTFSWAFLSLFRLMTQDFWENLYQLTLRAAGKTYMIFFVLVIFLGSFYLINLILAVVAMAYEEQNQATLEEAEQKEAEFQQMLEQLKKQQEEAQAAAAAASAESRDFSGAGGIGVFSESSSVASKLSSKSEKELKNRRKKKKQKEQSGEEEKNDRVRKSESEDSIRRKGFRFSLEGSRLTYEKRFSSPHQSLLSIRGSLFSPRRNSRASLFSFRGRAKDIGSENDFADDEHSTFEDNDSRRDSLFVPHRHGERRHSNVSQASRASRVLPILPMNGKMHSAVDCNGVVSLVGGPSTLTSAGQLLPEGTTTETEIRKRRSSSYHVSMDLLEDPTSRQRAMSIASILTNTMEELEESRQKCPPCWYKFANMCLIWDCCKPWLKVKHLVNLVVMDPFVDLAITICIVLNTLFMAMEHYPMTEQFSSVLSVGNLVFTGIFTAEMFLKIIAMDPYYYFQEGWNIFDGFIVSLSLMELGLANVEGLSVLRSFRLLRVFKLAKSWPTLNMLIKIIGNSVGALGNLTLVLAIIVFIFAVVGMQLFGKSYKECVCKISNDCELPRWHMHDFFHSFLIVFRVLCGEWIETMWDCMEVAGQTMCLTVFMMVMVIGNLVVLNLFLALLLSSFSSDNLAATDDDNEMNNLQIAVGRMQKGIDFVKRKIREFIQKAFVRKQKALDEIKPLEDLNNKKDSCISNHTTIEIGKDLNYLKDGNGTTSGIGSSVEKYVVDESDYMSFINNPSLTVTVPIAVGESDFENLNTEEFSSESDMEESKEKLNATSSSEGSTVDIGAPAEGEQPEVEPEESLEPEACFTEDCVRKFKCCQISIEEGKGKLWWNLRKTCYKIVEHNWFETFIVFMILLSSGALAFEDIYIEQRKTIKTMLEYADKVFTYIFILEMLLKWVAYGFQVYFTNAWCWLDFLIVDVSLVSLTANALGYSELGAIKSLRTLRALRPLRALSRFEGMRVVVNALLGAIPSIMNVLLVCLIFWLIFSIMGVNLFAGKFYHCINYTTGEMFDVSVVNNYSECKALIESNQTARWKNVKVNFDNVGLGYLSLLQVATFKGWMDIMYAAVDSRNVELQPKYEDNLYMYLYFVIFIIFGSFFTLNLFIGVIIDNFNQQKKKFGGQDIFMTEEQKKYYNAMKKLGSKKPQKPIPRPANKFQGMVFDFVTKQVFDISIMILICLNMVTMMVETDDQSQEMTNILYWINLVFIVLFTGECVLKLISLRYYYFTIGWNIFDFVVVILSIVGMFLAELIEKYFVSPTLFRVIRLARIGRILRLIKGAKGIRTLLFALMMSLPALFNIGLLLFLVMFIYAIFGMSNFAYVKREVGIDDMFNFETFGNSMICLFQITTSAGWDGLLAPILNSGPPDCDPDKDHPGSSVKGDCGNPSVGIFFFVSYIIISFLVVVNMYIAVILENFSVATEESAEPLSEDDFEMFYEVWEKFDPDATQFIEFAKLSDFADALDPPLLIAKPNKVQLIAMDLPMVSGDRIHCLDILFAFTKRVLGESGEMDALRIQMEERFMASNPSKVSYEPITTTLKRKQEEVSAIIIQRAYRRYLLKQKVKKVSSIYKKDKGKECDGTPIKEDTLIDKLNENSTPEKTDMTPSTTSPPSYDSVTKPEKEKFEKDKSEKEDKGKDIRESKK
Text: (§1) To test whether 2-H can act by blocking VGNaCs, the PatchXpress 7000A was used. Mammalian CHO (Chinese hamster ovary) transfected with ion hNav1.2 and hNav1.6 channels cDNAs (SCN2A and SCN8A genes) were exposed to 2-H under both tonic and phasic conditions. The mammalian CHO-K1 epithelial embryonic cell line (ATCC number CCL-61) from Cricetulus griseus was obtained from ATCC, Manassas, VA. CHO-K1 cells were transfected with either hNav1.2 or hNav1.6 channel cDNA (SCN2A and SCN8A genes, respectively) and were exposed to 2-H under both tonic and phasic conditions.
(§2) The effects of 2-H were evaluated on hNav1.2 at 0.73, 1.46, 2.19, and 2.92 mg/mL and on hNav1.6 channels at 0.1, 0.36, 0.73, and 1.46 mg/mL, with each concentration tested in at least six cells (n = 6). Cells were exposed to each concentration of 2-H and measurements of the inward current were obtained within the first 3 min of exposure. […] Since the PatchXpress has open cell chambers where the testing occurs, there is no way to hermetically seal the experiment.
(§3) Based on this analysis, we estimated the IC50.

[6] = target: T2, hNav1.6 channels (Homo sapiens, UniProt Q9UQD0); test: Patch-clamp (PatchXpress 7000A) on transfected CHO cells, hNav1.6; format: cell-based; conditions: for IC50: CHO cells, n = 6, mean ± SEM, 2-H exposure limited to 3 min, read-out: hNav1.6 IC50 (converted); for times less active than lidocaine: hNav1.6
T2 construct: expressed in transfected cells; host or cells: CHO-K1 (ATCC CCL-61)
T2 sequence (Q9UQD0 whole entry): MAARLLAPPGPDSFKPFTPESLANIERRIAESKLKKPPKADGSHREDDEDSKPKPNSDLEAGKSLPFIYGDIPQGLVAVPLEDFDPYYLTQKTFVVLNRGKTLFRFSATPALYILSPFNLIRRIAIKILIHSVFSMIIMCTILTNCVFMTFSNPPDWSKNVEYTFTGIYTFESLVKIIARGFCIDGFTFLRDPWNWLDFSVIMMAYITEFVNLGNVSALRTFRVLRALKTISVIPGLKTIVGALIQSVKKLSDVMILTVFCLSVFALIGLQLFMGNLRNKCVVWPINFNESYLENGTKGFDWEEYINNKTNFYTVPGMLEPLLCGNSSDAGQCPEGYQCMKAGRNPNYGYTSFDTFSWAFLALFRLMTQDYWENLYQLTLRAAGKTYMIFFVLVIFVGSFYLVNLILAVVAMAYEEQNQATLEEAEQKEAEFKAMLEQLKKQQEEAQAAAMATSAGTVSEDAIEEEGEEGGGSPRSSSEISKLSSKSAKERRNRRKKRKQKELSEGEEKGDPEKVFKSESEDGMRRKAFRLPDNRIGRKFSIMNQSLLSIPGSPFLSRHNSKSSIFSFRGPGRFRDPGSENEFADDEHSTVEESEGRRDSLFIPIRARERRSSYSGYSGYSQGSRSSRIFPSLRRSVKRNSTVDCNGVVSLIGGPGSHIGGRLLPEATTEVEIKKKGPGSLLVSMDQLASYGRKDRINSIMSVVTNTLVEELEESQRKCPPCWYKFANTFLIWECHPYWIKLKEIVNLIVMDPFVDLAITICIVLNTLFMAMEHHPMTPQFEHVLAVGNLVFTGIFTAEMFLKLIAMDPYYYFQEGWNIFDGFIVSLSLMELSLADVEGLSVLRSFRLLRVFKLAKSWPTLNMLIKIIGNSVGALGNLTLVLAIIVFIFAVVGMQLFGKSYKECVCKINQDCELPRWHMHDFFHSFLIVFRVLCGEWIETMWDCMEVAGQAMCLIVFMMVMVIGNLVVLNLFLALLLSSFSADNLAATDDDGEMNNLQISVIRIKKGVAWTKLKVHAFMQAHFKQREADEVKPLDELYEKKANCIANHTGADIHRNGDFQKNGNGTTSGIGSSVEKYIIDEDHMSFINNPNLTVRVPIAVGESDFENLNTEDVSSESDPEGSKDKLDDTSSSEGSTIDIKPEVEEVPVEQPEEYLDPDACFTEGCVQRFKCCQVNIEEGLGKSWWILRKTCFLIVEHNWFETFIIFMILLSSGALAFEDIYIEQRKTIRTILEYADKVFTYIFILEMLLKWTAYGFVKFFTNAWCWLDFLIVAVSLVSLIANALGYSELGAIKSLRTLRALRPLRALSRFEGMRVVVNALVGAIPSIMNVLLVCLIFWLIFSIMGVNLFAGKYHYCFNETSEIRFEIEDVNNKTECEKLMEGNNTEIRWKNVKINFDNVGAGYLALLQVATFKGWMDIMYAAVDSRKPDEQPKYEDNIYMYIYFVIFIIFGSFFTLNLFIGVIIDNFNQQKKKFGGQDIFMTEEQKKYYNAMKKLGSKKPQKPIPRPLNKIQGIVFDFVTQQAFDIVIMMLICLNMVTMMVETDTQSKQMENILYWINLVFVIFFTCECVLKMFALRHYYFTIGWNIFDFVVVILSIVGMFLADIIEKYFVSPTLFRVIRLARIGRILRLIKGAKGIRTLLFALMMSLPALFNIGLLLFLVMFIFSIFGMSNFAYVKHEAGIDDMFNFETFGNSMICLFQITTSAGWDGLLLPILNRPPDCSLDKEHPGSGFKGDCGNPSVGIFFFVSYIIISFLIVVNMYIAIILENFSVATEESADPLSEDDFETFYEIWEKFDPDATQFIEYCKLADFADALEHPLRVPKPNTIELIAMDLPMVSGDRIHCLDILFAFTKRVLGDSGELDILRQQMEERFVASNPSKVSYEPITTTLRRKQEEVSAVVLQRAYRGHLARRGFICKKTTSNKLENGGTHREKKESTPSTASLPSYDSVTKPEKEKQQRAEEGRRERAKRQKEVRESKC
Text: as §1, §2, §3

[7] = tested on: nerves of the rat tail; set-up: method as in PMID 6093852; conditions: cited from earlier work
[8] = tested on: honeybees; test: Recruitment of defensive honeybees at the colony entrance, BeeSCAN counters; format: in vivo, Apis mellifera; conditions: control 46.42
Experimental: We first tested the dominant hypothesis that honeybees secrete 2-H as an alarm pheromone that recruits other honeybees in the face of a potential threat. We monitored honeybee response to different doses of 2-H applied at colony entrances. In control colonies, which were not exposed to 2-H, an average of 46.42 bees left the colony per minute (n = 5, SEM = 0.43). There was no statistical difference, 10 minutes after application, between the mean number of bees recruited in control colonies and those recruited in colonies exposed to 0.1 µL 2-H (mean = 47.18, n = 5, SEM = 0.36, p = 1.000). In contrast, higher doses of 2-H acted as a repellent.
We conducted field experiments at the apiary, in which we used electronic monitoring devices (BeeSCAN v2.03) to test whether the presence of 2-H on the colony flight boards stimulated recruitment of defensive honeybees. The monitoring devices counted the number of honeybees exiting the beehive once per minute for 10 minutes for each of the five colonies per treatment. […] To apply 2-H, we followed the standard methodology described in previous experiments.

CCCCCC(C)=O [2-H, 2-heptanone]
low concentration easily detectable by honeybees [1]: 4.049 µg/mL | 2-H detected in fully-recovered WML [2]: no 2-H | effect on locomotory pattern [3]: body movement stopped abruptly | recovery time of locomotory pattern ([3]; n = 8): 87.62 min | logP [4]: 1.98 | pIC50 ([5]; Phasic Experiment): 2.18 | pIC50 ([5]; Tonic Experiment): 2.04 | times less active than lidocaine ([5]; phasic experiments): 7.50 times | times less active than lidocaine ([5]; tonic experiments): 3.97 times | IC50 ([6]; Phasic Experiment): 4.64 mM | IC50 ([6]; Tonic Experiment): 7.18 mM | times less active than lidocaine ([6]; phasic experiments): 7.57 times | times less active than lidocaine ([6]; tonic experiments): 2.82 times | neurotoxic effects in vivo [7]: no neurotoxic effects | mean number of bees leaving the colony per minute ([8]; 0.1 µL 2-H at colony entrance, 10 minutes after application, p = 1.000): 47.18 per minute | mean number of honeybees exiting the hive per minute ([8]; 10 µL 2-H at colony entrance, p = 0.003): 42.54 per minute | mean number of honeybees exiting the hive per minute ([8]; 1000 µL 2-H at colony entrance, p = 0.002): 40.88 per minute
